From the supplement of paper PMC6045584
± gives the standard deviation of the averaged measurements.

Tests used:
[1] = compound: COCC[n+]1c2c(n(Cc3cnccn3)c1C)C(=O)c1ccccc1C2=O [YM155]; assay: surviving fraction relative to DMSO-only wells; higher = less growth inhibition; settings: exposure time: 5 days
Summary of the method: (§1)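 Viability was scored with CellTiter-Glo luminescence and normalised to the median of DMSO-only wells as surviving fraction. Beforehand, log-phase tumour cell lines were seeded at 250–500 cells per well in 384-well plates, allowed 24 hours, and exposed continuously for five days to inhibitors at 0.5, 1, 5, 10, 50, 100, 500 and 1000 nM. Only lines whose three screens gave replicate Pearson r >0.7 and median Z' >0.3 were kept.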

[2] = compound: CC[C@@]1(O)C(=O)OCc2c1cc1n(c2=O)Cc2cc3ccccc3nc2-1 [CAMPTOTHECIN]; assay: as above; settings: exposure time: 5 days
Summary of the method: as §1

Test System	surviving fraction ([1]; 0.5 nM)	surviving fraction ([1]; 1 nM)	surviving fraction ([1]; 5 nM)	surviving fraction ([1]; 10 nM)	surviving fraction ([1]; 50 nM)	surviving fraction ([1]; 100 nM)	surviving fraction ([1]; 500 nM)	surviving fraction ([1]; 1000 nM)	surviving fraction ([2]; 0.5 nM)	surviving fraction ([2]; 1 nM)	surviving fraction ([2]; 5 nM)	surviving fraction ([2]; 10 nM)	surviving fraction ([2]; 50 nM)	surviving fraction ([2]; 100 nM)	surviving fraction ([2]; 500 nM)	surviving fraction ([2]; 1000 nM)
CADOES1 SOFT TISSUE	1.06 ± 0.12	0.907 ± 0.093	0.92 ± 0.096	0.911 ± 0.12	1.02 ± 0.056	0.934 ± 0.071	0.852 ± 0.054	0.881 ± 0.064	0.886 ± 0.088	0.818 ± 0.1	0.0943 ± 0.0059	0.0577 ± 0.014	0.045 ± 0.0044	0.0337 ± 0.0064	0.0317 ± 0.0021	0.0297 ± 0.0015
ASKA SYNOVIAL	0.87 ± 0.054	0.924 ± 0.094	0.719 ± 0.039	0.375 ± 0.017	0.227 ± 0.017	0.195 ± 0.017	0.194 ± 0.011	0.243 ± 0.017	0.303 ± 0.029	0.641 ± 0.065	0.349 ± 0.032	0.242 ± 0.025	0.118 ± 0.005	0.21 ± 0.0046	0.157 ± 0.0082	0.231 ± 0.0075
CCK81 LARGE INTESTINE	0.854 ± 0.1	0.82 ± 0.03	0.735 ± 0.076	0.745 ± 0.021	0.674 ± 0.022	0.798 ± 0.073	0.719 ± 0.036	0.801 ± 0.13	0.789 ± 0.034	0.805 ± 0.085	0.693 ± 0.16	0.542 ± 0.097	0.506 ± 0.051	0.416 ± 0.046	0.056 ± 0.007	0.0267 ± 0.0049
C33A CERVIX	0.816 ± 0.047	0.325 ± 0.029	0.057 ± 0.032	0.031 ± 0.0062	0.0213 ± 0.00058	0.0393 ± 0.041	0.0193 ± 0.0076	0.0353 ± 0.015	0.863 ± 0.019	0.868 ± 0.074	0.654 ± 0.1	0.423 ± 0.024	0.126 ± 0.03	0.0787 ± 0.0078	0.0317 ± 0.0032	0.0383 ± 0.016
MDAMB436 BREAST	0.932 ± 0.065	0.929 ± 0.14	0.744 ± 0.13	0.556 ± 0.099	0.195 ± 0.05	0.115 ± 0.031	0.0377 ± 0.0074	0.0453 ± 0.013	0.678 ± 0.074	0.677 ± 0.055	0.391 ± 0.047	0.318 ± 0.048	0.2 ± 0.017	0.177 ± 0.0068	0.142 ± 0.018	0.141 ± 0.022
H23 LUNG	0.78 ± 0.053	0.822 ± 0.056	0.125 ± 0.014	0.113 ± 0.003	0.0233 ± 0.0021	0.02 ± 0.0017	0.0163 ± 0.0011	0.0227 ± 0.0015	0.919 ± 0.02	0.916 ± 0.041	0.56 ± 0.021	0.269 ± 0.0046	0.0917 ± 0.006	0.0627 ± 0.0011	0.0193 ± 0.00058	0.0197 ± 0.00058
MHM BONE	0.972 ± 0.013	0.998 ± 0.021	1.01 ± 0.011	1.05 ± 0.016	0.299 ± 0.013	0.202 ± 0.0085	0.0287 ± 0.0011	0.0323 ± 0.00058	0.9523 ± 0.0021	0.969 ± 0.031	0.94 ± 0.026	0.927 ± 0.025	0.462 ± 0.022	0.334 ± 0.017	0.16 ± 0.016	0.121 ± 0.0075
SCC36 HEADNECK	1.01 ± 0.035	1.02 ± 0.042	1.06 ± 0.14	0.817 ± 0.07	0.261 ± 0.056	0.105 ± 0.0036	0.04 ± 0.0056	0.0387 ± 0.0015	0.804 ± 0.15	0.703 ± 0.13	0.704 ± 0.14	0.495 ± 0.018	0.332 ± 0.012	0.156 ± 0.0031	0.0463 ± 0.012	0.0413 ± 0.004
CME SYNOVIAL	0.752 ± 0.12	0.95 ± 0.22	0.468 ± 0.037	0.254 ± 0.049	0.232 ± 0.023	0.206 ± 0.0035	0.189 ± 0.0055	0.27 ± 0.029	0.013 ± 0.0036	0.14 ± 0.019	0.0177 ± 0.00058	0.0897 ± 0.018	0.028 ± 0.0027	0.152 ± 0.017	0.1177 ± 0.00058	0.229 ± 0.0051
MFM223 BREAST	0.966 ± 0.082	0.954 ± 0.19	0.259 ± 0.2	0.209 ± 0.15	0.0798 ± 0.051	0.085 ± 0.085	0.116 ± 0.16	0.138 ± 0.18	0.746 ± 0.07	0.703 ± 0.03	0.566 ± 0.047	0.573 ± 0.11	0.754 ± 0.087	0.662 ± 0.041	0.296 ± 0.072	0.303 ± 0.1
MDAMB361 BREAST	0.869 ± 0.069	0.826 ± 0.073	0.919 ± 0.23	0.549 ± 0.041	0.224 ± 0.0076	0.191 ± 0.022	0.103 ± 0.0066	0.0887 ± 0.0074	0.664 ± 0.069	0.737 ± 0.045	0.747 ± 0.096	0.723 ± 0.066	0.774 ± 0.071	0.702 ± 0.032	0.397 ± 0.038	0.38 ± 0.041
HCT15 LARGE INTESTINE	0.916 ± 0.056	1.01 ± 0.051	0.975 ± 0.017	0.974 ± 0.029	0.467 ± 0.028	0.185 ± 0.029	0.061 ± 0.0027	0.0557 ± 0.0031	0.33 ± 0.031	0.779 ± 0.041	0.232 ± 0.083	0.0333 ± 0.0047	0.0227 ± 0.0038	0.0337 ± 0.0038	0.0207 ± 0.0021	0.0277 ± 0.0038
SIHA CERVIX	0.917 ± 0.056	0.938 ± 0.069	0.977 ± 0.049	0.735 ± 0.011	0.0433 ± 0.0055	0.022 ± 0.002	0.0197 ± 0.00058	0.0243 ± 0.0015	0.822 ± 0.017	0.889 ± 0.024	0.857 ± 0.033	0.539 ± 0.1	0.44 ± 0.039	0.377 ± 0.0053	0.099 ± 0.0017	0.0593 ± 0.0023
CAL120 BREAST	0.934 ± 0.049	0.905 ± 0.073	0.148 ± 0.021	0.0712 ± 0.0018	0.0243 ± 0.001	0.0215 ± 0.00087	0.016 ± 0.00087	0.023 ± 0.0017	0.901 ± 0.069	0.819 ± 0.0086	0.409 ± 0.033	0.314 ± 0.035	0.182 ± 0.011	0.105 ± 0.0043	0.0285 ± 0.0023	0.0287 ± 0.0014
MDAMB453 BREAST	0.989 ± 0.048	0.949 ± 0.089	0.306 ± 0.021	0.2993 ± 0.0025	0.11 ± 0.0085	0.0773 ± 0.014	0.0533 ± 0.0076	0.057 ± 0.017	0.966 ± 0.069	0.966 ± 0.017	1.01 ± 0.048	0.942 ± 0.058	0.43 ± 0.03	0.453 ± 0.015	0.109 ± 0.016	0.091 ± 0.0027
T47D BREAST	0.959 ± 0.013	0.983 ± 0.027	0.917 ± 0.035	0.763 ± 0.0085	0.212 ± 0.01	0.131 ± 0.01	0.0481 ± 0.0042	0.0483 ± 0.0017	0.819 ± 0.035	0.878 ± 0.023	0.743 ± 0.019	0.528 ± 0.012	0.259 ± 0.013	0.236 ± 0.0055	0.157 ± 0.006	0.137 ± 0.0086
KPD BONE	0.966 ± 0.037	0.995 ± 0.068	0.519 ± 0.033	0.266 ± 0.046	0.0473 ± 0.0081	0.0347 ± 0.004	0.0237 ± 0.0025	0.0257 ± 0.0021	0.886 ± 0.02	0.856 ± 0.041	0.509 ± 0.0098	0.327 ± 0.004	0.29 ± 0.015	0.15 ± 0.016	0.041 ± 0.0027	0.0363 ± 0.0045
HSSYII SYNOVIAL	0.876 ± 0.058	0.843 ± 0.014	0.199 ± 0.0066	0.0977 ± 0.011	0.0352 ± 0.004	0.027 ± 0.0035	0.017 ± 0.0013	0.0215 ± 0.0017	0.187 ± 0.025	0.686 ± 0.035	0.213 ± 0.011	0.12 ± 0.0066	0.0273 ± 0.0023	0.0507 ± 0.0042	0.0363 ± 0.001	0.0383 ± 0.0038
BT549 BREAST	1.08 ± 0.11	1.03 ± 0.11	0.99 ± 0.0076	0.834 ± 0.11	0.256 ± 0.083	0.0713 ± 0.018	0.029 ± 0.008	0.0307 ± 0.0023	0.743 ± 0.096	0.672 ± 0.094	0.377 ± 0.018	0.103 ± 0.014	0.032 ± 0.004	0.0227 ± 0.00058	0.02	0.023 ± 0.002
